Experimental data as given in patent publication US7157083B2, “Compositions and methods for treating retroviral infections” (priority 1998, dated 2007).

Experiments:
Rojo virus = assay: Study 3 hyaluronidase sensitization assay: RT activity after Rojo challenge of naive PBMCs; type: cell-based, HIV-1
Experimental: (§1) Percent virus control (% VC) in the following tables is the mean RT activity (cpm) as a percentage of a virus control. Percent cell control (% CC) is the mean XTT absorbance as a percentage of a cell control.
(§2) Reverse transcriptase (RT) activity was measured in cell-free supernatants. Tritiated thymidine triphosphate (NEN) (TTP) was resuspended in distilled H2O at […]. Poly rA and oligo dT were prepared as a stock solution which was kept at −20° C. The RT reaction buffer was prepared fresh on a daily basis and consists of 125 μL 1.0 M EGTA, 125 μL d H2O, 110 μL 10% SDS, 50 μL 1.0 M Tris (pH 7.4), 50 μL 1.0 M DTT, and 40μ1.0 M MgCl2. These three solutions were mixed together in a ratio of 2 parts TTP, 1 part poly rA:oligo dT, and 1 part reaction buffer. Ten microliters of this reaction mixture was placed in a round bottom microtiter plate and 15 μL of virus containing supernatant was added and mixed. The plate was incubated at 37° C. in a water bath with a solid support to prevent submersion of the plate and incubated for 60 minutes. Following reaction, the reaction volume was spotted onto pieces of DE81 paper, washed 5 times for 5 minutes each in a 5% sodium phosphate buffer, 2 times for 1 minute each in distilled water, 2 times for 1 minute each in 70% ethanol, and then dried. Opti-Fluor O was added to each sample and incorporated radioactivity was quantitated utilizing a Wallace 1450 Microbetaplus liquid scintillation counter.
Assay Summary. […] The the monolayers were 3× washed with PBS, with Human PBMCs (5×10e4/well) returned to the monolayer. The PBMCs were either mixed donor, PHA blast, with IL2 supplemented medium, or were single donor non-PHA blast/no IL2 supplemented. After 72 hours, the PBMCs were removed, reset in a 96 well plate and then challenged with a standard MOI of the Rojo virus. The plates were incubated for an additional 6 days and then assayed for RT activity. The studies were produced in triplicate.

IIIB (HIV IIIB virus) = assay: Study 4 sensitization, Turpin and standard macrophages: RT activity after IIIB challenge; type: cell-based
Experimental: as §1, §2
The macrophage plates were then washed with HBSS multiple times. Fresh mixed pha blast PBMCs (5×10e4/well) were placed on the macrophage cells, allowed to incubate for 72 hours and then harvested and reset in a fresh 96 well plate. The PBMCs were then challenged overnight with the respective virus (IIIB or Rojo) at a standard MOI for that virus. The PBMCs were 5× in plate spin washed with DPBS, incubated 24 hours, at which time 5×10e4 fresh pha blast PBMCs/well were added. The culture was incubated an additional 6 days and then assayed for RT activity.
Where viability corrections were conducted, they were performed by dividing the RT CPM value by the toxicity absorbance in order to compensate for well to well variations noted in the cell titer toxicity noted.

Hyaluronidase
RT activity % VC (Rojo virus; 0.20 μg/mL, 5 μL GP120 IIIB, With PHA/IL2): 78.6%
RT activity % VC (Rojo virus; 0.20 μg/mL, 5 μL GP120 IIIB, Without PHA/IL2): 155.9%
RT activity % VC (Rojo virus; 0.20 μg/mL, 5 μL Rojo, With PHA/IL2): 88.8%
RT activity % VC (Rojo virus; 0.20 μg/mL, 5 μL Rojo, Without PHA/IL2): 77.8%
RT activity % VC (Rojo virus; 0.20 μg/mL, 10 μL Rojo, Without PHA/IL2): 112.8%
RT activity % VC (Rojo virus; 0.20 μg/mL, 50 μL Rojo, With PHA/IL2): 79.1%
RT activity % VC (Rojo virus; 0.20 μg/mL, 50 μL Rojo, Without PHA/IL2): 125.8%
RT activity % VC (Rojo virus; 0.39 μg/mL, 5 μL GP120 IIIB, With PHA/IL2): 116.1%
RT activity % VC (Rojo virus; 0.39 μg/mL, 5 μL GP120 IIIB, Without PHA/IL2): 195.6%
RT activity % VC (Rojo virus; 0.39 μg/mL, 5 μL Rojo, With PHA/IL2): 79.7%
RT activity % VC (Rojo virus; 0.39 μg/mL, 5 μL Rojo, Without PHA/IL2): 102.7%
RT activity % VC (Rojo virus; 0.39 μg/mL, 10 μL Rojo, With PHA/IL2): 123.2%
RT activity % VC (Rojo virus; 0.39 μg/mL, 10 μL Rojo, Without PHA/IL2): 115.9%
RT activity % VC (Rojo virus; 0.39 μg/mL, 50 μL Rojo, With PHA/IL2): 87.6%
RT activity % VC (Rojo virus; 0.39 μg/mL, 50 μL Rojo, Without PHA/IL2): 149.4%
RT activity % VC (Rojo virus; 0.78 μg/mL, 5 μL GP120 IIIB, With PHA/IL2): 101.9%
RT activity % VC (Rojo virus; 0.78 μg/mL, 5 μL GP120 IIIB, Without PHA/IL2): 134.4%
RT activity % VC (Rojo virus; 0.78 μg/mL, 5 μL Rojo, With PHA/IL2): 68.2%
RT activity % VC (Rojo virus; 0.78 μg/mL, 5 μL Rojo, Without PHA/IL2): 7.0%
RT activity % VC (Rojo virus; 0.78 μg/mL, 10 μL Rojo, With PHA/IL2): 110.5%
RT activity % VC (Rojo virus; 0.78 μg/mL, 10 μL Rojo, Without PHA/IL2): 97.6%
RT activity % VC (Rojo virus; 0.78 μg/mL, 50 μL Rojo, With PHA/IL2): 102.6%
RT activity % VC (Rojo virus; 1.56 μg/mL, 5 μL GP120 IIIB, With PHA/IL2): 98.0%
RT activity % VC (Rojo virus; 1.56 μg/mL, 5 μL GP120 IIIB, Without PHA/IL2): 158.5%
RT activity % VC (Rojo virus; 1.56 μg/mL, 5 μL Rojo, With PHA/IL2): 59.0%
RT activity % VC (Rojo virus; 1.56 μg/mL, 5 μL Rojo, Without PHA/IL2): 6.4%
RT activity % VC (Rojo virus; 1.56 μg/mL, 10 μL Rojo, With PHA/IL2): 125.9%
RT activity % VC (Rojo virus; 1.56 μg/mL, 10 μL Rojo, Without PHA/IL2): 115.6%
RT activity % VC (Rojo virus; 1.56 μg/mL, 50 μL Rojo, With PHA/IL2): 115.7%
RT activity % VC (Rojo virus; 1.56 μg/mL, 50 μL Rojo, Without PHA/IL2): 146.0%
RT activity % VC (Rojo virus; 3.1 μg/mL, 5 μL GP120 IIIB, With PHA/IL2): 85.5%
RT activity % VC (Rojo virus; 3.1 μg/mL, 5 μL GP120 IIIB, Without PHA/IL2): 145.7%
RT activity % VC (Rojo virus; 3.1 μg/mL, 5 μL Rojo, With PHA/IL2): 56.0%
RT activity % VC (Rojo virus; 3.1 μg/mL, 5 μL Rojo, Without PHA/IL2): 9.7%
RT activity % VC (Rojo virus; 3.1 μg/mL, 10 μL Rojo, With PHA/IL2): 117.8%
RT activity % VC (Rojo virus; 3.1 μg/mL, 10 μL Rojo, Without PHA/IL2): 97.3%
RT activity % VC (Rojo virus; 3.1 μg/mL, 50 μL Rojo, With PHA/IL2): 97.3%
RT activity % VC (Rojo virus; 3.1 μg/mL, 50 μL Rojo, Without PHA/IL2): 86.8%
RT activity % VC (Rojo virus; 6.3 μg/mL, 5 μL GP120 IIIB, With PHA/IL2): 105.3%
RT activity % VC (Rojo virus; 6.3 μg/mL, 5 μL GP120 IIIB, Without PHA/IL2): 71.7%
RT activity % VC (Rojo virus; 6.3 μg/mL, 5 μL Rojo, Without PHA/IL2): 15.7%
RT activity % VC (Rojo virus; 6.3 μg/mL, 10 μL Rojo, Without PHA/IL2): 67.1%
RT activity % VC (Rojo virus; 6.3 μg/mL, 50 μL Rojo, With PHA/IL2): 61.3%
RT activity % VC (Rojo virus; 6.3 μg/mL, 50 μL Rojo, Without PHA/IL2): 21.3%
RT activity % VC (Rojo virus; 25 μg/mL, 5 μL GP120 IIIB, With PHA/IL2): 85.5%
RT activity % VC (Rojo virus; 25 μg/mL, 5 μL GP120 IIIB, Without PHA/IL2): 8.8%
RT activity % VC (Rojo virus; 25 μg/mL, 5 μL Rojo, Without PHA/IL2): 8.8%
RT activity % VC (Rojo virus; 25 μg/mL, 10 μL Rojo, With PHA/IL2): 97.3%
RT activity % VC (Rojo virus; 25 μg/mL, 10 μL Rojo, Without PHA/IL2): 2.3%
RT activity % VC (Rojo virus; 25 μg/mL, 50 μL Rojo, With PHA/IL2): 73.4%
RT activity % VC (Rojo virus; 25 μg/mL, 50 μL Rojo, Without PHA/IL2): 8.4%
RT activity % VC (IIIB (HIV IIIB virus); 0.097656 μg/mL, GP120IIIB Sensitized, Standard): 176.4%
RT activity % VC (IIIB (HIV IIIB virus); 0.097656 μg/mL, GP120IIIB Sensitized, Turpin): 89.0%
RT activity % VC (IIIB (HIV IIIB virus); 0.097656 μg/mL, IIIB Sensitized, Standard): 145.2%
RT activity % VC (IIIB (HIV IIIB virus); 0.097656 μg/mL, IIIB Sensitized, Turpin): 98.7%
RT activity % VC (IIIB (HIV IIIB virus); 0.195313 μg/mL, GP120IIIB Sensitized, Standard): 102.8%
